Reference: publication PMC6131557, “Selective Cytotoxicity of Dihydroorotate Dehydrogenase Inhibitors to Human Cancer Cells Under Hypoxia and Nutrient-Deprived Conditions” (Frontiers in Pharmacology, 2018)

Experiments:
[1] = biological target: T1, human dihydroorotate dehydrogenase (HsDHODH) (Homo sapiens, UniProt Q02127); test: Inhibition of recombinant human DHODH enzyme activity; format: biochemical; details: for inhibition at 1 µM: at 1,000 nM, read-out: Inhibition of HsDHODH activity (value in parentheses); for IC50: recombinant human DHODH, purified enzyme fixed at 10 nM, read-out: IC50 (nM), inhibition of human DHODH
T1 construct: made in house

DLD-1 cells = test: Cytotoxicity assay (Cell Counting Kit-8 / WST-8) on DLD-1 cells; format: cell-based, human; details: at higher concentrations (100 μM); Supplementary Figure S7
Description: For hypoxia and nutrient-deprived culture conditions, cells were incubated under 1% oxygen in glucose and glutamine-free DMEM (Gibco) without FBS.
DLD-1 or HDF cells were seeded at 2.5 × 10^4 cells/well on a 96-well plate with normal medium, and cultured overnight under normal culture condition. The cells were washed with PBS and the medium was replaced to either normal medium or glucose and glutamine-free DMEM without FBS. Test compounds or DMSO as a control were added to the wells. The cells in normal medium were cultured under normal culture conditions, while cells in nutrient-deprived medium were cultured under hypoxia condition. After 24 or 48 h incubation, the cells were washed with PBS, 100 μl of fresh normal medium, and 10 μl of Cell Counting Kit-8 solution (Donjindo, Japan) was added to each well. After 3 h incubation under normal culture condition, the absorbance was measured at 450 nm using SpectraMax M2e-TUY microplate reader (Molecular Devices). Cell viability of test wells was calculated based on absorbance of control wells containing DMSO according to manufacturer’s protocol.

T1 sequence (Q02127 whole entry): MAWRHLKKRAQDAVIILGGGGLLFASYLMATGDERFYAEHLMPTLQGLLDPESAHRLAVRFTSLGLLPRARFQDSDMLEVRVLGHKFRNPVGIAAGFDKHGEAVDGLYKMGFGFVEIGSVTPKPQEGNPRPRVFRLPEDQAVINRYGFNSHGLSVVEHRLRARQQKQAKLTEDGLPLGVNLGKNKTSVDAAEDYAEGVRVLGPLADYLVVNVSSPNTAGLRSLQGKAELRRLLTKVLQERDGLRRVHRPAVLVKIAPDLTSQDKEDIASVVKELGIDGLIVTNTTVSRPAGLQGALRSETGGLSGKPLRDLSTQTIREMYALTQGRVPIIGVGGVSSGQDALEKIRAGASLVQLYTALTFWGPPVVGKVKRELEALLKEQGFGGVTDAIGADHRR

Compound | inhibition at 1 µM [1] [%] | IC50 [1] [nM] | HsDHODH inhibition activity (in words) [1] | fold increase in the IC50 in comparison to 3 ([1]; HsDHODH IC50 versus compound 3) [fold] | effect on DLD-1 under hypoxia/nutrient-deprived conditions (in words) (DLD-1 cells)
CCCCCC(C)CCc1c(O)c(Cl)c(C)c(C=O)c1O (centres unmarked) [Compound 18] | 37 | > 1000 |  |  | 
Cc1c(Cl)c(O)c(CCC(C)CCCCOC(=O)C(C)(C)C)c(O)c1C=O (centres unmarked) [Compound 16] | 21 | > 1000 |  |  | 
CCCCC/C(C)=C/Cc1c(O)c(Cl)c(C)c(C=O)c1O [Compound 17] |  | 71.4 ± 2.4 |  |  | 
C/C(=C\Cc1c(O)c(Cl)c(C)c(C=O)c1O)CC/C=C(\C)C1CC(=O)C(C)(C)O1 (racemic) [Compound 2, racemic-AF] |  | 97.4 ± 7.3 |  |  | 
Cc1c(Cl)c(O)c(CCC(C)CCCC(C)COC(=O)C(C)(C)C)c(O)c1C=O (centres unmarked) [Compound 14] | 35 | > 1000 | abolished |  | 
CC(C)=CCC/C(C)=C/Cc1c(O)cc(C)c(C=O)c1O [Compound 22, Colletorin B] | 20 | > 1000 |  | > 13 | 
CC(C)=CCC/C(C)=C/Cc1c(O)c(Cl)c(C)c(C=O)c1O [Compound 3, colletochlorin B] |  | 74.1 ± 22 |  |  | 
C/C(O)=C(\C#N)C(=O)Nc1ccc(C(F)(F)F)cc1 [Compound A771726, teriflunomide, reference compound] |  |  |  |  | specific inhibition under hypoxia/nutrient-deprived condition was observed
CC(=O)c1c(C)c(Cl)c(O)c(C/C=C(\C)CC/C=C(\C)C2CC(=O)C(C)(C)O2)c1O (centres unmarked) [Compound 19] | 3 | > 1000 | lost |  | 
